Read-outs that look alike come from different tables or passages of the source. Ends that are not written are not given here. Peptide text beside a SMILES is read from it.
Tests used:
[1] = system: SaOS cells; experiment: cAMP production in SaOS cells, dose-response; format: cell-based
[2] = system: LLCPK1-B64 cells or SaOS-2 cells; experiment: cAMP screen of substituted PTHrP(1-28) analogs (% parent); format: cell-based; conditions: parent PTHrP(1-28)NH
How it was run: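 LLCPK1-B64 or SaOS-2 cells exposed to peptide analogs at 3×10^−9M with IBMX for 30 minutes at room temperature, then cAMP measured. Each analog's response expressed as percentage of that for parent PTHrP(1-28).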

[3] = system: MC3T3-E1 cells; experiment: cAMP in MC3T3-E1 cells, dose-response; format: cell-based
Experimental: In the 1-30 scaffold, Gly, Ser, Leu, Asn, Gln, Trp, Glu, and Lys were substituted at position 29; Gly, Ser, Leu, Asn, Asp, Trp, and Lys were substituted at position 30; and Ser, Leu, Asn, Val, Trp, Glu, and Lys were substituted at position 31. […] These peptides were tested for cAMP activity in MC3T3-E1 cells.

[4] = target: T1, human PTHR, G protein-uncoupled conformation (R^0) (Homo sapiens, UniProt Q03431); experiment: Competition binding to R0 conformation of hPTHR (COS-7 membranes, GTPγS, 125I-PTH(1-34) tracer); conditions: for IC50: read-out: R^0 binding affinity hPTHR IC50; for screen human PIR R0 (% parent): parent PTHrP(1-28)NH
T1 construct: expressed in transfected cells; host or cells: COS-7, transient (Fugene-6)
T1 sequence (Q03431 27-593): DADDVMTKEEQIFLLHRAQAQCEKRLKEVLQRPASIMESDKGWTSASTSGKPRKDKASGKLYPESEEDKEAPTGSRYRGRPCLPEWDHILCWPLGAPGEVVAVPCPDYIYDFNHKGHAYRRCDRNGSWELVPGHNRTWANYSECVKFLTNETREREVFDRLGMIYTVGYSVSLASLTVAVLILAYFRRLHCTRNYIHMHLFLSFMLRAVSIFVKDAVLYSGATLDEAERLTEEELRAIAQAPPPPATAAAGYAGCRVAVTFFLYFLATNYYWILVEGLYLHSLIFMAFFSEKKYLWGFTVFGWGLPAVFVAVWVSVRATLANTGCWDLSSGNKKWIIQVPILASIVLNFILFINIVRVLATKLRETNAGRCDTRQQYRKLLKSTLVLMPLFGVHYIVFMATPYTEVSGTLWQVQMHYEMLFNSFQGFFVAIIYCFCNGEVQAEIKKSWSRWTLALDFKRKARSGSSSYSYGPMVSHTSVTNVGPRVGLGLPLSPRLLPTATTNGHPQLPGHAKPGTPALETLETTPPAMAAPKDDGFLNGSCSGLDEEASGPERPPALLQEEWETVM
How it was run: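 Bound versus free radioligand was separated by vacuum filtration after 90 min incubation of COS-7 hPTHR membranes (20-100 μg/mL) with tracer and competing peptides. Non-specific binding came from a saturating unlabeled analog.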

[5] = target: T2, human PTHR, G protein-coupled conformation (RG) (Homo sapiens, UniProt Q03431); experiment: Competition binding to RG conformation of hPTHR (COS-7 membranes, GαsND, 125I-[Aib1,3,M]PTH(1-15) tracer); conditions: for IC50: Table 2, read-out: RG binding affinity hPTHR IC50; for screen human PIR RG (% parent): parent PTHrP(1-28)NH
T2 construct: expressed in transfected cells; host or cells: COS-7, transient (Fugene-6); membranes
T2 sequence (Q03431 27-593): T1 sequence (Q03431 27-593)

[6] = Calcemic action in normal rats (blood ionized calcium); format: in vivo; conditions: for calcemic action compared with control peptides, in words: normal and TPTX rats
Experimental: Binding to the rat PTHR was also measured in vitro.
Concentration of peptides in stock solution were adjusted by dilution with 25 mmol/L phosphate-citrate buffer/100 mmol/L NaCl/0.05% Tween 80 (pH. 5.0) (PC-buffer). All peptides were allowed to stand on ice immediately before administration.
Female SD-IGS rat at 8 weeks of age (Charles River Japan, Inc.) were measured for their body weight. Blood was collected by tail vein into heparinized capillary tubes and measured for baseline levels of blood ionized calcium and pH using Ca^++/pH analyzer (Model 634/Bayer Medical Ltd.) to give the corrected level of ionized calcium at pH 7.4 for each sample. Rats received intravenous administration of each peptides at a dose of 1 ml/kg. Peptides were administered to groups of 6 rats each respectively. At 1, 2, 4, or 6 hours after administration, blood was collected by tail vein to monitor the time course of corrected blood ionized calcium levels. The time course of changes in corrected ionized calcium levels, compared to vehicle, and are expressed as means+/−standard error.

[7] = target: T3, human PTH receptor (Homo sapiens, UniProt Q03431); experiment: cAMP in HRKRK-B7 cells EC50 (nM)
T3 construct: expressed in transfected cells
From the text: Table printed on a drawing sheet, Figure 25
Head of the field: cAMP in HRKRK-B7 cells EC50 (nM)
First copying reader's note: The column head prints the cell line as HRKRK-B7 while the title prints HKRK-B7.

[8] = Table 2, read-out: SaOS camp EC50
[9] = Table 3, read-out: dose-response cAMP in SaOS (EC50)
[10] = Table 2, read-out: MC3T3-E1 cAMP EC50
[11] = Table 3, read-out: dose-response cAMP in MC3T3-E1 (EC50)

## CC[C@H](C)[C@H](NC(=O)[C@H](CC(C)C)NC(=O)[C@H](CCCCN)NC(=O)[C@H](Cc1c[nH]cn1)NC(=O)[C@H](CC(C)C)NC(=O)[C@H](Cc1ccccc1)NC(=O)[C@H](C)NC(=O)[C@H](CCCNC(=N)N)NC(=O)[C@H](CCCNC(=N)N)NC(=O)[C@H](CCCNC(=N)N)NC(=O)[C@H](C)NC(=O)[C@H](CC(=O)O)NC(=O)[C@H](CCC(N)=O)NC(=O)[C@@H](NC(=O)[C@H](CO)NC(=O)[C@H](CCCCN)NC(=O)CNC(=O)[C@H](CCCCN)NC(=O)[C@H](CC(=O)O)NC(=O)[C@H](Cc1c[nH]cn1)NC(=O)[C@H](CC(C)C)NC(=O)[C@H](CC(C)C)NC(=O)[C@H](CCC(N)=O)NC(=O)[C@H](Cc1c[nH]cn1)NC(=O)[C@H](CCC(=O)O)NC(=O)[C@H](CO)NC(=O)[C@@H](NC(=O)[C@H](C)N)C(C)C)[C@@H](C)CC)C(N)=O [A18, 22, K26-PTHrP(1-28)NH, A18,22,K26-PTHrP(1-28)] (H-AVSEHQLLHDKGKSIQDARRRAFLHKLI-NH2; N-terminus assumed)
[1]; [8]
  EC50: 0.024 nM
[1]; [9]
  EC50: 0.024 nM
[2]
  screen cAMP (% parent): 405 % parent
[3]; [10]
  EC50: 0.091 nM
[3]; [11]
  EC50: 0.091 nM
[4]; Table 2, hPTHR
  R0/RG selectivity: 18079
[4]; Table 2
  IC50: 1810 nM
[4]
  screen human PIR R0 (% parent): 178 % parent
[5]
  IC50: 0.1 nM
  screen human PIR RG (% parent): 193 % parent

## CC[C@H](C)[C@H](NC(=O)[C@H](CC(C)C)NC(=O)[C@H](CCCCN)NC(=O)[C@H](CC(C)C)NC(=O)[C@H](CC(C)C)NC(=O)[C@H](Cc1ccccc1)NC(=O)[C@H](C)NC(=O)[C@H](CCCNC(=N)N)NC(=O)[C@H](CCCNC(=N)N)NC(=O)[C@H](CCCNC(=N)N)NC(=O)[C@H](C)NC(=O)[C@H](CC(=O)O)NC(=O)[C@H](CCC(N)=O)NC(=O)[C@@H](NC(=O)[C@H](CO)NC(=O)[C@H](CCCCN)NC(=O)CNC(=O)[C@H](CCCCN)NC(=O)[C@H](CC(=O)O)NC(=O)[C@H](Cc1c[nH]cn1)NC(=O)[C@H](CC(C)C)NC(=O)[C@H](CC(C)C)NC(=O)[C@H](CCC(N)=O)NC(=O)[C@H](Cc1c[nH]cn1)NC(=O)[C@H](CCC(=O)O)NC(=O)[C@H](CO)NC(=O)[C@@H](NC(=O)[C@H](C)N)C(C)C)[C@@H](C)CC)C(=O)N[C@@H](C)C(=O)N[C@@H](CCC(=O)O)C(N)=O [A18, 22, L25, K26-PTHrP(1-30)NH, A18,22,L25,K26-PTHrP(1-30)]
[1]; [8]
  EC50: 0.008 nM
[3]; [10]
  EC50: 0.067 nM
[3]; [11]
  EC50: 0.067 nM
[4]; Table 2
  IC50: 144 nM
[5]
  IC50: 0.05 nM

## CC[C@H](C)[C@H](NC(=O)[C@H](CC(C)C)NC(=O)[C@H](CCCCN)NC(=O)[C@H](Cc1c[nH]cn1)NC(=O)[C@H](CC(C)C)NC(=O)[C@H](Cc1ccccc1)NC(=O)[C@H](C)NC(=O)[C@H](CCCNC(=N)N)NC(=O)[C@H](CCCNC(=N)N)NC(=O)[C@H](CCCNC(=N)N)NC(=O)[C@H](CCC(=O)O)NC(=O)[C@H](CC(=O)O)NC(=O)[C@H](CCC(N)=O)NC(=O)[C@@H](NC(=O)[C@H](CO)NC(=O)[C@H](CCCCN)NC(=O)CNC(=O)[C@H](CCCCN)NC(=O)[C@H](CC(=O)O)NC(=O)[C@H](Cc1c[nH]cn1)NC(=O)[C@H](CC(C)C)NC(=O)[C@H](CC(C)C)NC(=O)[C@H](CCC(N)=O)NC(=O)[C@H](Cc1c[nH]cn1)NC(=O)[C@H](CCC(=O)O)NC(=O)[C@H](CO)NC(=O)[C@@H](NC(=O)[C@H](C)N)C(C)C)[C@@H](C)CC)C(N)=O [E18, A22, K26-PTHrP(1-28)NH, E18,A22,K26-PTHrP(1-28)] (H-AVSEHQLLHDKGKSIQDERRRAFLHKLI-NH2; N-terminus assumed)
[1]; [8]
  EC50: 0.241 nM
[1]; [9]
  EC50: 0.241 nM
[2]
  screen cAMP (% parent): 301 % parent
[3]; [10]
  EC50: 0.251 nM
[3]; [11]
  EC50: 0.251 nM
[4]; Table 2
  IC50: 9240 nM
[4]
  screen human PIR R0 (% parent): 68.8 % parent
[5]
  screen human PIR RG (% parent): 145 % parent

## CC[C@H](C)[C@H](NC(=O)[C@H](CCC(=O)O)NC(=O)[C@H](C)NC(=O)[C@@H](NC(=O)[C@H](Cc1c[nH]cn1)NC(=O)[C@@H](NC(=O)[C@H](CCC(=O)O)NC(=O)[C@H](C)NC(=O)[C@@H](NC(=O)[C@H](CC(C)C)NC(=O)[C@H](Cc1c[nH]cn1)NC(=O)[C@H](Cc1c[nH]cn1)NC(=O)[C@H](CC(C)C)NC(=O)[C@H](Cc1ccccc1)NC(=O)[C@H](Cc1ccccc1)NC(=O)[C@H](CCCNC(=N)N)NC(=O)[C@H](CCCNC(=N)N)NC(=O)[C@H](CCCNC(=N)N)NC(=O)[C@H](CC(C)C)NC(=O)[C@H](CC(=O)O)NC(=O)[C@H](CCC(N)=O)NC(=O)[C@@H](NC(=O)[C@H](Cc1c[nH]cn1)NC(=O)[C@H](CCCCN)NC(=O)CNC(=O)[C@H](CC(C)C)NC(=O)[C@H](CC(N)=O)NC(=O)[C@H](Cc1c[nH]cn1)NC(=O)[C@H](CCSC)NC(=O)[C@H](CC(C)C)NC(=O)[C@H](CCC(N)=O)NC(=O)[C@@H](NC(=O)[C@H](CCC(=O)O)NC(=O)[C@H](CO)NC(=O)[C@@H](NC(=O)[C@@H](N)CO)C(C)C)[C@@H](C)CC)[C@@H](C)CC)[C@@H](C)CC)[C@@H](C)CC)[C@@H](C)O)C(=O)O [PTH(1-14)/PTHrP(15-36), hPTH(1-14)/PTHrP(15-36)] (H-SVSEIQLMHNLGKHIQDLRRRFFLHHLIAEIHTAEI-OH)
[6]
  calcemic action compared with control peptides, in words: higher calcemic actions than did PTH(1-34)
[7]
  EC50: 1.35 nM

## CC[C@H](C)[C@H](NC(=O)[C@H](CCC(=O)O)NC(=O)[C@H](C)NC(=O)[C@@H](NC(=O)[C@H](Cc1c[nH]cn1)NC(=O)[C@@H](NC(=O)[C@H](CCC(=O)O)NC(=O)[C@H](C)NC(=O)[C@@H](NC(=O)[C@H](CC(C)C)NC(=O)[C@H](Cc1c[nH]cn1)NC(=O)[C@H](Cc1c[nH]cn1)NC(=O)[C@H](CC(C)C)NC(=O)[C@H](Cc1ccccc1)NC(=O)[C@H](Cc1ccccc1)NC(=O)[C@H](CCCNC(=N)N)NC(=O)[C@H](CCCNC(=N)N)NC(=O)[C@H](CCCNC(=N)N)NC(=O)[C@H](CCSC)NC(=O)[C@H](CO)NC(=O)[C@H](CC(N)=O)NC(=O)[C@H](CC(C)C)NC(=O)[C@H](Cc1c[nH]cn1)NC(=O)[C@H](CCCCN)NC(=O)CNC(=O)[C@H](CC(C)C)NC(=O)[C@H](CC(N)=O)NC(=O)[C@H](Cc1c[nH]cn1)NC(=O)[C@H](CCSC)NC(=O)[C@H](CC(C)C)NC(=O)[C@H](CCC(N)=O)NC(=O)[C@@H](NC(=O)[C@H](CCC(=O)O)NC(=O)[C@H](CO)NC(=O)[C@@H](NC(=O)[C@@H](N)CO)C(C)C)[C@@H](C)CC)[C@@H](C)CC)[C@@H](C)CC)[C@@H](C)O)C(=O)O [PTH(1-18)/PTHrP(19-36), hPTH(1-18)/PTHrP(19-36)] (H-SVSEIQLMHNLGKHLNSMRRRFFLHHLIAEIHTAEI-OH)
[6]
  calcemic action compared with control peptides, in words: higher calcemic actions than did PTH(1-34)
[7]
  EC50: 1.34 nM

## AVAEIQLMHQRGKSIQDLRRRFFLHHLIAEIHTAEI (AVAEIQLMHQRGKSIQDLRRRFFLHHLIAEIHTAEI-OH) [Mc-PTH(1-11)/PTHrP(15-36)]
[6]; normal rats, i.v.
  calcemic action (blood ionized calcium), in words: Prolonged calcemic effects

Reference: patent US9057727B2, “Screening methods using G-protein coupled receptors and related compositions” (The General Hospital Corporation, priority 2007, dated 2015)
